What was measured:
Assay in all cases: combination Emax (second highest fraction inhibited in the dose matrix, 72 h); higher = more inhibition; extreme values may be limits of the assay
[1] = test system: NCI-H446 (Small Cell Lung Carcinoma)
In short: (§1)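 Bliss excess equals the observed combination effect minus the expected value EA + EB − EA·EB, where EA and EB are the effects of each agent alone. Combination Emax is the second-highest inhibition within the matrix. Inhibition was scaled from CellTiter-Glo 2.0 luminescence, with 0 set by vehicle wells and 1 by blank wells, after 72 hours of two-drug dosing of cells plated in 1536-well plates.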

[2] = test system: OAW-42 (Ovarian Carcinoma)
In short: as §1

[3] = test system: HEC-1 (Endometrial Carcinoma)
In short: as §1

[4] = test system: HCT-15 (Colorectal Carcinoma)
In short: as §1

[5] = test system: OPM-2 (Plasma Cell Myeloma)
In short: as §1

[6] = test system: IST-MES1 (Mesothelioma)
In short: as §1

[7] = test system: SF539 (Glioblastoma)
In short: as §1

[8] = test system: RKN (Other Solid Carcinomas)
In short: as §1

[9] = test system: MKN45 (Gastric Carcinoma)
In short: as §1

[10] = test system: VAL (B-Cell Non-Hodgkin's Lymphoma)
In short: as §1

[11] = test system: LK-2 (Squamous Cell Lung Carcinoma)
In short: as §1

[12] = test system: SK-PN-DW (Other Solid Carcinomas)
In short: as §1

[13] = test system: GP5d (Colorectal Carcinoma)
In short: as §1

[14] = test system: PANC-03-27 (Pancreatic Carcinoma)
In short: as §1

[15] = test system: LXF-289 (Lung Adenocarcinoma)
In short: as §1

[16] = test system: PSN1 (Pancreatic Carcinoma)
In short: as §1

[17] = test system: OVMIU (Ovarian Carcinoma)
In short: as §1

[18] = test system: RCM-1 (Colorectal Carcinoma)
In short: as §1

[19] = test system: WM793B (Melanoma)
In short: as §1

[20] = test system: SHP-77 (Small Cell Lung Carcinoma)
In short: as §1

Compound	combination Emax [1]	combination Emax [2]	combination Emax [3]	combination Emax [4]	combination Emax [5]	combination Emax [6]	combination Emax [7]	combination Emax [8]	combination Emax [9]	combination Emax [10]	combination Emax [11]	combination Emax [12]	combination Emax [13]	combination Emax [14]	combination Emax [15]	combination Emax [16]	combination Emax [17]	combination Emax [18]	combination Emax [19]	combination Emax [20]
CN(CCO)CC[C@H](CSc1ccccc1)Nc1ccc(S(=O)(=O)NC(=O)c2ccc(N3CCC([C@@H](O)c4ccccc4-c4ccc(Cl)cc4)CC3)cc2)cc1S(=O)(=O)C(F)(F)F [AZD4320] + C1CN(CCC1(C(=O)N[C@@H](CCO)C2=CC=C(C=C2)Cl)N)C3=NC=NC4=C3C=CN4 [Capivasertib] (first compound max 1 µM, 7x7, partner max 3 µM)	0.78	0.282	0.295	0.174	0.955	0.0905	0.461	0.154	0.456	1	0.655	0.482	0.72	0.25	0.173	0.276	0.876	0.343	0.281	
COc1nnc2ccc(N3CCC(c4ccc(OCCN5CCN(C)C(=O)[C@H]5C)cc4)CC3)nn12 [AZD5153] + CN(CC[C@H](CSC1=CC=CC=C1)NC2=C(C=C(C=C2)S(=O)(=O)NC(=O)C3=CC=C(C=C3)N4CCC(CC4)[C@H](C5=CC=CC=C5C6=CC=C(C=C6)Cl)O)S(=O)(=O)C(F)(F)F)CCO [AZD4320] (first compound max 1 µM, 7x7, partner max 1 µM)	0.984	0.41	0.983	0.81									0.727		0.667				0.508	
Cc1cc2ncnn2cc1Nc1ncc2c(n1)n(C1CCOCC1)c(=O)n2C [AZD7648] + C[C@@H]1COCCN1C2=NC(=NC(=C2)C3(CC3)[S@](=N)(=O)C)C4=C5C=CNC5=NC=C4 [AZD6738] (first compound max 10 µM, 7x7, partner max 10 µM)	0.786		0.423	0.835	0.822	0.313	0.85	0.225	0.793	0.918	0.39	0.943	0.822	0.824	0.369	0.418	0.528	0.855	0.818	0.493
Cc1cc2ncnn2cc1Nc1ncc2c(n1)n(C1CCOCC1)c(=O)n2C [AZD7648] + O=C(c1cc(Cc2n[nH]c(=O)c3ccccc23)ccc1F)N1CCN(C(=O)C2CC2)CC1 [Olaparib] (first compound max 10 µM, 7x7, partner max 10 µM)	0.273		0.114	0.501	0.294	0.234	0.406	0.189	0.264	0.601	0.335	0.395	0.28	0.185	0.177	0.31	0.306	0.125	0.341	0.233
COc1cccc2c1C(=O)c1c(O)c3c(c(O)c1C2=O)C[C@@](O)(C(=O)CO)C[C@@H]3O[C@H]1C[C@H](N)[C@H](O)[C@H](C)O1 [Doxorubicin] + Cc1cc2ncnn2cc1Nc1ncc2c(n1)n(C1CCOCC1)c(=O)n2C [AZD7648] (first compound max 1 µM, 7x7, partner max 10 µM)	0.923		0.367	0.742	0.845	0.767	0.934	0.693	0.821	1	0.632	0.814	0.693	0.686	0.4	0.788	0.861	0.605	0.801	0.562
CS(=O)(=O)CCNCc1ccc(-c2ccc3ncnc(Nc4ccc(OCc5cccc(F)c5)c(Cl)c4)c3c2)o1 [Lapatinib] + NC1(c2ccc(-c3nc4ccn5c(=O)[nH]nc5c4cc3-c3ccccc3)cc2)CCC1 [MK-2206] (first compound max 10 µM, 7x7, partner max 10 µM)	0.962	0.819			0.972	0.638	0.953	0.346	0.617	0.898	0.892	0.933		0.76		0.562	0.891	0.514		0.633
CC(=O)c1c(C)c2cnc(Nc3ccc(N4CCNCC4)cn3)nc2n(C2CCCC2)c1=O [Palbociclib] + CN(CC[C@H](CSC1=CC=CC=C1)NC2=C(C=C(C=C2)S(=O)(=O)NC(=O)C3=CC=C(C=C3)N4CCC(CC4)[C@H](C5=CC=CC=C5C6=CC=C(C=C6)Cl)O)S(=O)(=O)C(F)(F)F)CCO [AZD4320] (first compound max 10 µM, 7x7, partner max 1 µM)	0.887	0.562	0.298	0.726									0.592		0.449				0.474	
COc1cccc(OCCCN)c1-c1cc(Nc2cnc(C#N)cn2)n[nH]1 [Prexasertib] + C=CCn1c(=O)c2cnc(Nc3ccc(N4CCN(C)CC4)cc3)nc2n1-c1cccc(C(C)(C)O)n1 [AZD1775] (first compound max 1 µM, partner max 1 µM)	0.995		0.715	0.972	0.967	0.609	1	0.833	0.865	0.921	0.92	0.968	1	0.925	0.834	0.781	0.814	0.822	0.938	0.949
COc1cccc(OCCCN)c1-c1cc(Nc2cnc(C#N)cn2)n[nH]1 [Prexasertib] + CN(C)CCCOc1ccc(-c2ccc3ncc4c(c3c2)n(C2CCOCC2)c(=O)n4C)cn1 [AZD0156] (first compound max 1 µM, 7x7, partner max 1 µM)	0.982		0.655	0.92	0.936	0.218	0.963	0.67	0.836	0.924	0.726	0.948	0.983	0.902	0.772	0.444	0.684	0.818	0.903	0.829
COc1cccc(OCCCN)c1-c1cc(Nc2cnc(C#N)cn2)n[nH]1 [Prexasertib] + C[C@@H]1COCCN1C2=NC(=NC(=C2)C3(CC3)[S@](=N)(=O)C)C4=C5C=CNC5=NC=C4 [AZD6738] (first compound max 1 µM, 7x7, partner max 10 µM)	0.975		0.74	0.95	0.909	0.278	0.972	0.577	0.822	0.952	0.689	0.937	0.967	0.902	0.762	0.536	0.596	0.862	0.907	0.836
COc1cccc(OCCCN)c1-c1cc(Nc2cnc(C#N)cn2)n[nH]1 [Prexasertib] + Cc1cc2ncnn2cc1Nc1ncc2c(n1)n(C1CCOCC1)c(=O)n2C [AZD7648] (first compound max 1 µM, 7x7, partner max 10 µM)	0.97		0.53	0.935	0.912	0.355	0.985	0.658	0.811	0.932	0.755	0.931	0.964	0.898	0.724	0.461	0.624	0.796	0.866	0.862
COc1cccc(OCCCN)c1-c1cc(Nc2cnc(C#N)cn2)n[nH]1 [Prexasertib] + O=C(c1cc(Cc2n[nH]c(=O)c3ccccc23)ccc1F)N1CCN(C(=O)C2CC2)CC1 [Olaparib] (first compound max 1 µM, 7x7, partner max 10 µM)	0.963		0.416	0.883	0.943	0.283	1	0.678	0.854	0.93	0.799	0.937	0.945	0.918	0.783	0.456	0.592	0.596	0.873	0.819
COc1cc2c(cc1OCCCCCOc1cc3c(cc1OC)C(=O)N1C=C(C)C[C@H]1C=N3)N=C[C@@H]1CC(C)=CN1C2=O [SG3199] + O=C(c1cc(Cc2n[nH]c(=O)c3ccccc23)ccc1F)N1CCN(C(=O)C2CC2)CC1 [Olaparib] (first compound max 0.001 µM, 7x7, partner max 10 µM)	0.285		0.176	0.264	0.0651	0.218	0.268	0.0618	0.0741	0.57	0.28	0.393	0.189	0.0754	0.119	0.127	0.0896	0.0628	0.194	0.223
CCc1c2c(nc3ccc(O)cc13)-c1cc3c(c(=O)n1C2)COC(=O)[C@]3(O)CC [SN-38] + CN(C)CCCOc1ccc(-c2ccc3ncc4c(c3c2)n(C2CCOCC2)c(=O)n4C)cn1 [AZD0156] (first compound max 0.3 µM, 7x7, partner max 1 µM)	0.818		0.398	0.943	0.772	0.875	0.895	0.631	0.815	0.944	0.584	0.92	0.655	0.773	0.599	0.705	0.32	0.86	0.85	0.48

— the supplement of paper PMC11061612
